Key:
Format in all cases: ADME, organism-based
[1] = Cmax in healthy human plasma at 800 mg measured on day 1; design: dose 800 mg
[2] = Cmax in healthy human plasma at 800 mg for every 12 hrs measured on day 15; design: dose 800 mg
[3] = Trough concentration in healthy human plasma at 800 mg for every 12 hrs measured on day 15; settings: read-out: Cmin
[4] = Tmax in healthy human plasma at 800 mg for every 12 hrs measured on day 15
[5] = AUC (0-tau) in healthy human plasma at 800 mg for every 12 hrs measured on day 15
[6] = Tmax in healthy human plasma at 800 mg measured on day 1
[7] = Apparent oral clearance in healthy human plasma at 800 mg for every 12 hrs measured on day 15

`Cc1nc(COc2ccc(C[C@H](NC(=O)O[C@H]3CO[C@H]4OCC[C@H]43)[C@H](O)CN(CC(C)C)S(=O)(=O)c3ccc4c(c3)OCO4)cc2)cs1` [BRECANAVIR] gave a Cmax [1] of 3.96 ng/mL, a Cmax [2] of 49.2 ng/mL and a concentration at 12 h [3] of 2.6 ng/mL. It also gave a Tmax [4] of 3.75 h, an AUC tau at 12 h [5] of 199 ng·h/mL and a Tmax [6] of 2.5 h. For the same compound, the CL/F [7] was 67000 mL/min.

— ChEMBL document CHEMBL1147107, “Safety and pharmacokinetics of brecanavir, a novel human immunodeficiency virus type 1 protease inhibitor, following repeat administration with and without ritonavir in healthy adult subjects” (Antimicrob Agents Chemother, 2007)
